Like-named read-outs stand apart in the source and are kept apart here.
Tests used:
[1] = test system: human fibrosarcoma HT-1080 cells; test: Effect on human fibrosarcoma HT-1080 cells (trypan blue dye exclusion); format: cell-based; settings: for viability at 25 µg/mL / viability at 50 µg/mL / viability at 100 µg/mL / viability at 150 µg/mL: HT-1080, read-out: Percent survival; for viability at 25 µg/mL: 25 μg/ml; for viability at 50 µg/mL: 50 μg/ml
Procedure: Human fibrosarcoma cells were cultured in Minimum essential medium (Eagle) with non-essential amino acids and Earls balanced salt solution supplemented with 10% heat-inactivated fetal bovine serum. Cells (5×10^3 in 0.5 ml of growth medium) were plated in 16 well plates and incubated at 37° C. in a humidified atmosphere of 5% CO2 in air for 24 h. Cells were then treated with different doses of C1. Control wells received vehicle only (<0.5% ethanol in saline). After further incubation periods of 24 and 48 h, the viability of cells was determined by trypan blue dye exclusion method.

[2] = test system: Herpes simplex virus (HSV); test: Inactivation of Herpes simplex virus (plaque assay on Vero cells); format: cell-based; settings: for PFU/ml: control 7.1 × 10^5
Procedure: The control sample received vehicle only. After the incubation period, samples were serially diluted and 0.1 ml of each dilution and the undiluted samples were inoculated into monolayers of Vero cells (African green monkey kidney cells). Overlay medium was added and the monolayers were incubated at 37° C. After 3 days of incubation, the overlay medium was removed, and the monolayer cells were fixed with methanol and treated with Giemsa stain.

[3] = test system: MT-4 cells; test: Toxicity to MT-4 cells; format: cell-based, human; settings: drug doses of the HIV-1 test (75-125 μg/ml)
Procedure: After 2 h at 37° C., treated and control HIV-1 samples were added to the indicator MT-4 cells (cultured human T cells) in the presence of 2 μg/ml POLYBRENE™ for 2 h. After washing, MT-4 cells were cultured in the presence of drug-treated or control (untreated) HIV-1. Cell viability of MT-4 cells was determined by the trypan blue dye exclusion method.

[4] = test system: T cells; test: Modulation of T cells in HIV-1 positive subjects; format: in vivo, human; settings: 4.3 mg/kg for 15 days; one subject; before treatment 425; normal range 650-1330
Source text: Blood samples were drawn before and after on day 15 or 30 from the initiation of treatment for regular CBC profile. […] The normal range of T cells is 650-1330.

[5] = test system: KM12; test: NCI tumor cell line screen (SRB assay); format: cell-based; parameters: activity: dose or concentration left out as unconfirmed; settings: Homo sapiens, read-out: PERCENT GROWTH
Procedure: (§1) The National Cancer Institute carried out the studies at the direction of the present inventor.
(§2) In the tests, the National Cancer Institute used the SRB (sulforhodamine B) assay as described by Skehan et al., (Journal of the National Cancer Institute, 82:13, Jul. 4, 1990, 1107-1112). Briefly, the assay is as follows. TCA-fixed cells were stained for 30 minutes with 0.4% (wt/vol) SRB dissolved in 1% acetic acid. At the end of the staining period, SRB was removed and cultures were quickly rinsed four times with 1% acetic acid to remove unbound dye. The acetic acid was poured directly into the culture wells from a beaker. […] Residual wash solution was removed by sharply flicking plates over a sink, which ensured the complete removal of rinsing solution. […] After being rinsed, the cultures were air dried until no standing moisture was visible. Bound dye was solubilized with 10 mM unbuffered Tris base (pH 10.5) for 5 minutes on a gyratory shaker.
(§3) Optical density (OD) was read in either a UVmax microtiter plate reader (Molecular Devices, Menlo Park, Calif.) or a Beckman DU-70 spectrophotometer. For maximum sensitivity, OD was measured at 564 nm. Because readings were linear with dye concentrations only below 1.8 OD units, however, suboptimal wavelengths were generally used, so that all samples in an experiment remained within the linear OD range. With most cell lines, wavelengths of approximately 490-530 nm worked well for this purpose.
(§4) Nine different non-small cell lung carcinoma cell lines, six different colon carcinoma cell lines, six different CNS (central nervous system) carcinoma cell lines, seven different melanoma cell lines, six different ovarian carcinoma cell lines, and eight different renal carcinoma cell lines were tested.

[6] = test system: NCI-H460; test: NCI tumor cell line screen (SRB assay); format: cell-based; parameters: activity: dose or concentration left out as unconfirmed; settings: Homo sapiens, read-out: PERCENT GROWTH
Procedure: as §1, §2, §3, §4

[7] = test system: NCI-H522; test: NCI tumor cell line screen (SRB assay); format: cell-based; parameters: activity: dose or concentration left out as unconfirmed; settings: Homo sapiens, read-out: PERCENT GROWTH
Procedure: as §1, §2, §3, §4

[8] = test system: OVCAR-8; test: NCI tumor cell line screen (SRB assay); format: cell-based; parameters: activity: dose or concentration left out as unconfirmed; settings: Homo sapiens, read-out: PERCENT GROWTH
Procedure: as §1, §2, §3, §4

[9] = test system: SF-268; test: NCI tumor cell line screen (SRB assay); format: cell-based; parameters: activity: dose or concentration left out as unconfirmed; settings: Homo sapiens, read-out: PERCENT GROWTH
Procedure: as §1, §2, §3, §4

[10] = test system: SF-295; test: NCI tumor cell line screen (SRB assay); format: cell-based; parameters: activity: dose or concentration left out as unconfirmed; settings: Homo sapiens, read-out: PERCENT GROWTH
Procedure: as §1, §2, §3, §4

[11] = test system: SK-MEL-2; test: NCI tumor cell line screen (SRB assay); format: cell-based; parameters: activity: dose or concentration left out as unconfirmed; settings: Homo sapiens, read-out: PERCENT GROWTH
Procedure: as §1, §2, §3, §4

[12] = test system: UACC-62; test: NCI tumor cell line screen (SRB assay); format: cell-based; parameters: activity: dose or concentration left out as unconfirmed; settings: Homo sapiens, read-out: PERCENT GROWTH
Procedure: as §1, §2, §3, §4

[13] = Homo sapiens, 24 h, control 92.3 ± 3.1
[14] = Homo sapiens, 48 h, control 92.4 ± 3.1
[15] = Vero, 150 μg/ml, 24 h at 37° C.

CCCCN1C(=O)CC(=O)N(CCCC)C1=S [Compound C1, 4,6(1H, 5H)-pyrimidinedione, 1,3-dibutyldihydro-2-thioxo]
fibrosarcoma cells killed ([1]; 25 μg/ml (lowest dose), 48 h): virtually all fibrosarcoma cells were killed | fibrosarcoma cells killed ([1]; 100 μg/ml, 24 h): Virtually all fibrosarcoma cells were killed | fibrosarcoma cells killed ([1]; 150 μg/ml, 24 h): Virtually all fibrosarcoma cells were killed | cytotoxicity at 50 µg/mL ([1]; Homo sapiens, HT-1080, 24 h, read-out: cells killed): > 92% | viability at 25 µg/mL [1, 13]: 0.03 ± 0.03% | viability at 25 µg/mL [1, 14]: 0% | viability at 50 µg/mL [1, 13]: 0.03 ± 0.03% | viability at 50 µg/mL [1, 14]: 0% | viability at 100 µg/mL ([1]; Homo sapiens, 100 μg/ml, 24 h, control 92.3 ± 3.1): 0% | viability at 100 µg/mL ([1]; Homo sapiens, 100 μg/ml, 48 h, control 92.4 ± 3.1): 0% | viability at 150 µg/mL ([1]; Homo sapiens, 150 μg/ml, 24 h, control 92.3 ± 3.1): 0% | viability at 150 µg/mL ([1]; Homo sapiens, 150 μg/ml, 48 h, control 92.4 ± 3.1): 0% | PFU/ml ([2]; 30 μg/ml, 24 h at 37° C.): 2.1 × 10^5 PFU/ml | PFU/ml ([2]; 120 μg/ml, 24 h at 37° C.): 6.5 × 10^5 PFU/ml | PFU/ml ([2]; 150 μg/ml, 24 h at 37° C.): 7.5 × 10^5 PFU/ml | log reduction at 120 µg/mL ([2]; Vero, 24 h): 2.04 | killing at 120 µg/mL ([2]; Vero, 24 h, read-out: % Inactivation): 99% | killing at 30 µg/mL ([2]; Vero, 30 μg/ml, 24 h at 37° C.): 70.4% | log reduction at 30 µg/mL ([2]; Vero, 30 μg/ml, 24 h at 37° C.): 0.53 | killing at 60 µg/mL ([2]; Vero, 60 μg/ml, 24 h at 37° C.): 78.9% | log reduction at 60 µg/mL ([2]; Vero, 60 μg/ml, 24 h at 37° C.): 0.68 | killing at 150 µg/mL [2, 15]: 99.9% | log reduction at 150 µg/mL [2, 15]: 3 | toxicity to the MT-4 cells [3]: not toxic to the MT-4 cells | T cell count after treatment [4]: 720 | activity ([5]; 10^-3.0 Molar): -90% | activity at 100 µM ([5]; 10^-4.0 Molar): 76% | activity at 10 µM ([5]; 10^-5.0 Molar): 102% | activity at 1 µM ([5]; 10^-6.0 Molar): 101% | activity at 0.1 µM ([5]; 10^-7.0 Molar): 101% | activity ([6]; 10^-3.0 Molar): -54% | activity at 100 µM ([6]; 10^-4.0 Molar): 82% | activity at 10 µM ([6]; 10^-5.0 Molar): 97% | activity at 1 µM ([6]; 10^-6.0 Molar): 100% | activity at 0.1 µM ([6]; 10^-7.0 Molar): 99% | activity ([7]; 10^-3.0 Molar): -82% | activity at 100 µM ([7]; 10^-4.0 Molar): 47% | activity at 10 µM ([7]; 10^-5.0 Molar): 104% | activity at 1 µM ([7]; 10^-6.0 Molar): 102% | activity at 0.1 µM ([7]; 10^-7.0 Molar): 100% | activity ([8]; 10^-3.0 Molar): -49% | activity at 100 µM ([8]; 10^-4.0 Molar): 81% | activity at 10 µM ([8]; 10^-5.0 Molar): 108% | activity at 1 µM ([8]; 10^-6.0 Molar): 106% | activity at 0.1 µM ([8]; 10^-7.0 Molar): 102% | activity ([9]; 10^-3.0 Molar): -58% | activity at 100 µM ([9]; 10^-4.0 Molar): 52% | activity at 10 µM ([9]; 10^-5.0 Molar): 93% | activity at 1 µM ([9]; 10^-6.0 Molar): 100% | activity at 0.1 µM ([9]; 10^-7.0 Molar): 98% | activity ([10]; 10^-3.0 Molar): -95% | activity at 100 µM ([10]; 10^-4.0 Molar): 47% | activity at 10 µM ([10]; 10^-5.0 Molar): 100% | activity at 1 µM ([10]; 10^-6.0 Molar): 100% | activity at 0.1 µM ([10]; 10^-7.0 Molar): 104% | activity ([11]; 10^-3.0 Molar): -55% | activity at 100 µM ([11]; 10^-4.0 Molar): 87% | activity at 10 µM ([11]; 10^-5.0 Molar): 100% | activity at 1 µM ([11]; 10^-6.0 Molar): 106% | activity at 0.1 µM ([11]; 10^-7.0 Molar): 110% | activity ([12]; 10^-3.0 Molar): -79% | activity at 100 µM ([12]; 10^-4.0 Molar): 53% | activity at 10 µM ([12]; 10^-5.0 Molar): 88% | activity at 1 µM ([12]; 10^-6.0 Molar): 91% | activity at 0.1 µM ([12]; 10^-7.0 Molar): 94%

— patent US5869494A, “Uses for barbituric acid analogs” (priority 1997, dated 1999)
